Reference: patent US20250340561A1, “QUINAZOLINE COMPOUND FOR INDUCING DEGRADATION OF G12D MUTANT KRAS PROTEIN” (Astellas Pharma Inc., priority 2021, published 2025)
Where a name gives a salt, the structure may show the parent alone.

Biological target: T1, KRAS G12D (Homo sapiens, UniProt P01116, G12D)
T1 construct: host or cells: AsPC-1 human pancreatic cancer cells
Experiment: Test Example 1-1: KRAS degradation action in AsPC-1, sandwich ELISA
Format: cell-based
Conditions: AsPC-1 cells, 24 hours treatment, corrected with β-actin
Procedure: Test Example 1-1: Evaluation of KRAS Degradation Action on Human G12D Mutant KRAS-Positive Pancreatic Cancer Line AsPC-1
The KRAS degradation action of test compounds was evaluated by measuring the expression levels of KRAS G12D by a sandwich ELISA method.
AsPC-1 cells (ATCC, CRL-1682) were seeded at 90 μL per well on a 96-well plate (from IWAKI) to give 1.8×10^4 cells per well. As for the cell culture conditions, RPMI 1640 medium (from Merck) containing 10% fetal bovine serum (from Cytiva) was used in the presence of 5% CO2 at 37° C.
The next day, the test compounds (10 points having final concentrations in the range of 10 μM to 0.3 nM) were diluted 100-fold with a fresh medium and were added at 10 μL per well. The same treatments were each applied to 4 wells. In addition, in production of the sandwich ELISA plate, a capture antibody (anti-KRAS antibody, from LS Bio) mixed in Phosphate Buffered Saline [PBS; from FUJIFILM Wako Pure Chemical Corporation] in 1,000-fold dilution was added at 20 μL per well to a Maxisorp 384-well plate (from Thermo Scientific), and after attaching a seal, the plate was allowed to stand at 4° C. overnight.
After 24 hours of the test compound treatment, the culture supernatant was discarded. Immediately, a cytolytic solution (produced by adding, to a RIPA buffer [from Thermo Scientific], a Halt Protease Phosphatese Inhibitor Cocktail [from Thermo Scientific] and Benzonase Nuclease [from Merck] in amounts of 1/100 and 1/500, respectively) was added at 50 μL per well, and the cells were lysed. Then, equally treated 4 wells were combined to prepare a cell lysate sample of 200 μL in total. For KRAS detection, the Maxisorp 384-well plate which had been treated with the capture antibody since the previous day was washed (twice with 25 μL each) with 0.05% Tween-20-containing PBS (from Thermo Scientific; 20×PBS Tween-20 was diluted 20-fold with ion exchange water and used) and was treated with a blocking solution (Intercept Blocking Buffer; from LI-COR Biosciences) for 60 minutes, and then, the cell lysate samples were added at 20 μL per well. For 3-actin detection, the cell lysate samples were added as they were at 20 μL per well to the Maxisorp 384-well plate, and after attaching a seal, the plate was allowed to stand at 4° C. overnight.
The next day, after washing the KRAS detection plate with 0.05% Tween-20-containing PBS, an anti-Ras (G12D mutant specific) antibody (from Cell Signaling Technology) diluted 1,000-fold with a blocking solution was added at 20 μL per well as a detection antibody, and the plate was allowed to stand for 5 hours at room temperature. Then, the plate was centrifuged to remove the supernatant (using a centrifugal dehydrator machine, the supernatant was removed by the same method hereinafter) and was washed with 0.05% Tween-20-containing PBS. Then, an anti-Rabbit IgG […] antibody (from Cell Signaling Technology) diluted 1,000-fold with a blocking solution was added at 20 μL per well as a secondary antibody, and the plate was allowed to stand for 1 hour at room temperature. The plate was centrifuged to remove the supernatant and was washed with 0.05% Tween-20-containing PBS. Then, a BM chemiluminescent ELISA substrate (from Merck) was added at 20 μL per well, and the amounts of luminescence were measured with 2103 EnVision (from PerkinElmer). In addition, the 3-actin detection plate was washed with 0.05% Tween-20-containing PBS and was treated with a blocking solution for 60 minutes, and then, an anti-β-actin antibody (from Abcam) diluted 1,000-fold with a blocking solution was added at 20 μL per well as a detection antibody. The plate was allowed to stand for 5 hours at room temperature. Then, the plate was centrifuged to remove the supernatant and washed with 0.05% Tween-20-containing PBS, and then, an anti-Mouse IgG RP-linked antibody (from Cell Signaling Technology) diluted 1,000-fold with a blocking solution was added at 20 μL per well as a secondary antibody. […]

T1 sequence (P01116 1-188 isoform P01116-2 G12D): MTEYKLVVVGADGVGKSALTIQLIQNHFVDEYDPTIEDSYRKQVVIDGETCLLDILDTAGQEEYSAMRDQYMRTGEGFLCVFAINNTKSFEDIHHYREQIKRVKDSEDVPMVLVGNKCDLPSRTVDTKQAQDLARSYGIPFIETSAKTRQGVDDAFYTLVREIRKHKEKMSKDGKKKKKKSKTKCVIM

DC50 (0% = 10 μM Example No. 7, hydrochloride)	Compound	DC50 (0% = 10 μM Example No. 7)
–	Cc1c(F)cc2[nH]ncc2c1-c1c(C2CC2)cc2c(N3C[C@@H]4C[C@H]3CN4)nc(OC3CCOCC3)nc2c1OCc1ccc(-c2cn([C@H](C(=O)N3C[C@H](O)C[C@H]3C(=O)N[C@@H](CO)c3ccc(-c4ccnn4C)cc3)C(C)C)nn2)cc1 [Example 22]	62 nM
–	CCn1nccc1-c1ccc([C@H](CO)NC(=O)[C@@H]2C[C@@H](O)CN2C(=O)[C@H](C(C)C)n2cc(-c3ccc(COc4c(-c5c(C)c(F)cc6[nH]ncc56)c(C5CC5)cc5c(N6C[C@@H]7C[C@H]6CN7)nc(OC6CCOCC6)nc45)cc3)nn2)cc1 [Example 26]	24 nM
–	Cc1ncsc1-c1ccc([C@H](CO)NC(=O)[C@@H]2C[C@@H](O)CN2C(=O)[C@H](C(C)C)n2cc(-c3ccc(COc4c(-c5c(C)c(F)cc6[nH]ncc56)c(C5CC5)cc5c(N6C[C@@H]7C[C@H]6CN7)nc(OC6CCN(CC(F)F)CC6)nc45)cc3)nn2)cc1 [Example 21]	72 nM
–	Cc1ncsc1-c1ccc([C@H](C)NC(=O)[C@@H]2C[C@@H](O)CN2C(=O)[C@H](C(C)C)n2cc(-c3ccc(COc4c(-c5c(C)c(F)cc6[nH]ncc56)c(C5CC5)cc5c(N6C[C@@H]7C[C@H]6CN7)nc(OC6CCOCC6)nc45)cc3)nn2)cc1 [Example 9]	77 nM
–	Cc1c(F)cc2[nH]ncc2c1-c1c(C2CC2)cc2c(N3C[C@@H]4C[C@H]3CN4)nc(OC3CCOCC3)nc2c1OCc1ccc(-c2cn([C@H](C(=O)N3C[C@H](O)C[C@H]3C(=O)N[C@@H](CO)c3ccc(-c4ccnn4C)cc3)C(C)C)nn2)cc1 [Example 23]	34 nM
–	Cc1c(F)cc2[nH]ncc2c1-c1c(C2CC2)cc2c(N3C[C@@H]4C[C@H]3CN4)nc(OC3CCOCC3)nc2c1OCc1ccc(-c2cn([C@H](C(=O)N3C[C@H](O)C[C@H]3C(=O)N[C@@H](CO)c3ccc(-c4scnc4CO)cc3)C(C)C)nn2)cc1 [Example 18, (4R)-1-[(2S)-2-(4-{4-[({6-cyclopropyl-4-[(1S,4S)-2,5-diazabicyclo[2.2.1]heptan-2-yl]-7-(6-fluoro-5-methyl-1H-indazol-4-yl)-2-[(oxan-4-yl)oxy]quinazolin-8-yl}oxy)methyl]phenyl}-1H-1,2,3-triazol-1-yl)-3-methylbutanoyl]-4-hydroxy-N-[(1R)-2-hydroxy-1-{4-[4-(hydroxymethyl)-1,3-thiazol-5-yl]phenyl}ethyl]-L-prolinamide n hydrochloride]	74 nM
–	Cc1ncsc1-c1ccc([C@H](CO)NC(=O)[C@@H]2C[C@@H](O)CN2C(=O)C(C(C)C)n2cc(-c3ccc(COc4c(-c5c(C)c(F)cc6[nH]ncc56)c(C5CC5)cc5c(N6C[C@@H]7C[C@H]6CN7)nc(OC6CCOCC6)nc45)cc3)cn2)cc1 (single isomer, unassigned) [Example 11]	178 nM
–	Cc1ncsc1-c1ccc([C@H](CO)NC(=O)[C@@H]2C[C@@H](O)CN2C(=O)[C@H](C(C)C)n2cc(-c3ccc(COc4c(-c5c(C)c(F)cc6[nH]ncc56)c(C5CC5)cc5c(N6C[C@@H]7C[C@H]6CN7)nc(OC6CCN(C7COC7)CC6)nc45)cc3)nn2)cc1 [Example 24]	103 nM
–	Cc1ncsc1-c1ccc([C@H](CF)NC(=O)[C@@H]2C[C@@H](O)CN2C(=O)[C@H](C(C)C)n2cc(-c3ccc(COc4c(-c5c(C)c(F)cc6[nH]ncc56)c(C5CC5)cc5c(N6C[C@@H]7C[C@H]6CN7)nc(OC6CCOCC6)nc45)cc3)nn2)cc1 [Example 17]	92 nM
–	Cc1ncsc1-c1ccc([C@H](CO)NC(=O)[C@@H]2C[C@@H](O)CN2C(=O)[C@H](C(C)C)n2cc(-c3ccc(COc4c(-c5c(C)c(F)cc6[nH]ncc56)c(C5CC5)cc5c(N6C[C@@H]7C[C@H]6CN7)nc(OC6COC6)nc45)cc3)nn2)cc1 [Example 27]	55 nM
–	Cc1c(F)cc2[nH]ncc2c1-c1c(C2CC2)cc2c(N3C[C@@H]4C[C@H]3CN4)nc(OC3CCOCC3)nc2c1OCc1ccc(-c2cn([C@H](C(=O)N3C[C@H](O)C[C@H]3C(=O)N[C@@H](CO)c3ccccc3)C(C)C)nn2)cc1 (atropisomer, axis not shown) [Example 14]	221 nM
–	CCOc1nc(N2C[C@@H]3C[C@H]2CN3)c2cc(C3CC3)c(-c3c(C)c(F)cc4[nH]ncc34)c(OCc3ccc(C(=O)N[C@H](C(=O)N4C[C@H](O)C[C@H]4C(=O)N[C@@H](CO)c4ccc(-c5scnc5C)cc4)C(C)C)cc3)c2n1 [Example 5]	153 nM
–	Cc1ncsc1-c1ccc(CNC(=O)[C@@H]2C[C@@H](O)CN2C(=O)[C@H](C(C)C)n2cc(-c3ccc(COc4c(-c5c(C)c(F)cc6[nH]ncc56)c(C5CC5)cc5c(N6C[C@@H]7C[C@H]6CN7)nc(OC6CCOCC6)nc45)cc3)nn2)cc1 [Example 10]	124 nM
–	CCc1ccncc1Oc1nc(N2C[C@@H]3C[C@H]2CN3)c2cc(C3CC3)c(-c3c(C)c(F)cc4[nH]ncc34)c(OCc3ccc(-c4cn([C@H](C(=O)N5C[C@H](O)C[C@H]5C(=O)N[C@@H](CO)c5ccc(-c6scnc6C)cc5)C(C)C)nn4)cc3)c2n1 [Example 25]	44 nM
–	Cc1ncsc1-c1ccc([C@H](CN(C)C)NC(=O)[C@@H]2C[C@@H](O)CN2C(=O)[C@H](C(C)C)n2cc(-c3ccc(COc4c(-c5c(C)c(F)cc6[nH]ncc56)c(C5CC5)cc5c(N6C[C@@H]7C[C@H]6CN7)nc(OC6CCOCC6)nc45)cc3)nn2)cc1 [Example 19]	139 nM
–	Cc1ncsc1-c1ccc([C@H](CO)NC(=O)[C@@H]2C[C@@H](O)CN2C(=O)[C@@H](NC(=O)c2ccc(COc3c(-c4c(C)c(F)cc5[nH]ncc45)c(C4CC4)cc4c(N5C[C@@H]6C[C@H]5CN6)nc(OC5CCOCC5)nc34)cc2)C(C)C)cc1 [Example 3]	140 nM
–	Cc1ncsc1-c1ccc([C@H](CO)NC(=O)[C@@H]2C[C@@H](O)CN2C(=O)[C@H](C(C)C)N2Cc3cc(COc4c(-c5c(C)c(F)cc6[nH]ncc56)c(C5CC5)cc5c(N6C[C@@H]7C[C@H]6CN7)nc(OC6CCOCC6)nc45)ccc3C2=O)cc1 [Example 4]	897 nM
–	Cc1ncsc1-c1ccc(C2(NC(=O)[C@@H]3C[C@@H](O)CN3C(=O)[C@@H](NC(=O)c3ccc(COc4c(-c5c(C)c(F)cc6[nH]ncc56)c(C5CC5)cc5c(N6C[C@@H]7C[C@H]6CN7)nc(OC6CCOCC6)nc45)cn3)C(C)C)CC2)cc1 [Example 2]	598 nM
–	Cc1ncsc1-c1ccc([C@H](CO)NC(=O)[C@@H]2C[C@@H](O)CN2C(=O)[C@H](C(C)C)n2cc(-c3ccc(COc4c(-c5cc(O)cc(F)c5C)c(C5CC5)cc5c(N6C[C@@H]7C[C@H]6CN7)nc(OC6CCOCC6)nc45)cc3)nn2)cc1 [Example 15]	95 nM
–	Cc1ncsc1-c1ccc(C2(NC(=O)[C@@H]3C[C@@H](O)CN3C(=O)[C@H](C(C)C)n3cc(-c4ccc(COc5c(-c6c(C)c(F)cc7[nH]ncc67)c(C6CC6)cc6c(N7C[C@@H]8C[C@H]7CN8)nc(OC7CCOCC7)nc56)cc4)nn3)CC2)cc1 [Example 6]	103 nM
46 nM	Cc1ncsc1-c1ccc([C@H](CO)NC(=O)[C@@H]2C[C@@H](O)CN2C(=O)[C@H](C(C)C)n2cc(-c3ccc(COc4c(-c5c(C)c(F)cc6[nH]ncc56)c(C5CC5)cc5c(N6C[C@@H]7C[C@H]6CN7)nc(OC6CCOCC6)nc45)cc3)nn2)cc1 [Example 7, (4R)-1-[(2S)-2-(4-{4-[({6-cyclopropyl-4-[(1S,4S)-2,5-diazabicyclo[2.2.1]heptan-2-yl]-7-(6-fluoro-5-methyl-1H-indazol-4-yl)-2-[(oxan-4-yl)oxy]quinazolin-8-yl}oxy)methyl]phenyl}-1H-1,2,3-triazol-1-yl)-3-methylbutanoyl]-4-hydroxy-N-{(1R)-2-hydroxy-1-[4-(4-methyl-1,3-thiazol-5-yl)phenyl]ethyl}-L-prolinamide n hydrochloride]	–
